Source: publication PMC2749869, “Reversal of oncogene transformation and suppression of tumor growth by the novel IGF1R kinase inhibitor A-928605” (BMC Cancer, 2009)
Entries after “also recorded” stand apart in the source; their conditions may differ.

What was measured:
NIH-3T3 CD8-IGF1R cells [1] = assay: Soft agar anchorage-independent growth assay; assay type: cell-based; conditions: 1 μM, three weeks
Protocol: (§1) Cells grown in soft agar were plated at 5,000 cells/well in 12-well tissue culture plates in a top layer of 0.3% noble agar on a 0.7% bottom layer. Media containing the final desired concentration of small molecule inhibitor was used as the agar overlay. For proliferation assays, 5,000 cells per well were plated in 96-well tissue culture treated plates and allowed to attach overnight. The following day small molecule inhibitors or DMSO control were added in duplicate at the indicated concentrations and cells were placed in tissue culture incubators for 72 hours. Cell viability was determined by an MTS assay (CellTiter Aqueous One, Promega, Madison, WI).
Supplementary file 1471-2407-9-314-S2.jpeg: Additional File 2 Supplementary Figure S2. […] Cells were plated in soft agar with an overlay containing DMSO control (left) or a final concentration of 1 μM A-928605 (right). Cells were allowed to grow in a tissue culture incubator for three weeks before imaging. The 3T3 vector control line was not capable of anchorage-independent growth in soft agar (data not shown). Click here for file

[2] = tested on: NIH-3T3 vector control cells; assay: Three day proliferation assay (MTS), NIH-3T3 vector control cells; assay type: cell-based; conditions: 72 hours
Protocol: as §1
(§2) All cells were grown in normal growth media containing 10% FBS. B, Cells were treated for 1 hour with A-928605 in a dose response analysis as shown. The CD8-IGF1R fusion protein runs as a doublet. C and D, Three day proliferation assay in the NIH-3T3 vector control cells (C) or CD8-IGF1R cells (D) with increasing amounts of six clinical small molecule inhibitors and A-928605. Compounds were run in duplicate at each indicated concentration. Results are representative of 5 separate assays. Intended targets of each small molecule inhibitor are as follows: lapatinib, ERBB2 and EGFR; gefitinib, EGFR; dasatinib, ABL and SRC; Sorafinib, multi-targeted; imatinib, ABL and KIT; erlotinib, EGFR.

CD8 IGF1R flank tumors = assay: CD8-IGF1R xenograft flank model; assay type: in vivo, mice; conditions: 50 mg/kg i.p. b.i.d. for 10 days, end of dosing (day 26)
Description: Figure 4 A-928605 abrogates modifications of IGF pathway signaling proteins in vitro and is efficacious in the CD8-IGF1R xenograft flank model in vivo. […] Cyclin D1 is a transcriptional target of the IGF signaling pathway and is therefore not affected by this one hour treatment.

IGF1R = IGF1R (Homo sapiens, UniProt P08069); assay: In vitro kinase panel (kinome profile), IGF1R; assay type: biochemical
Protocol: (§3) Figure 1 Chemical structure and activity of A-928605. A, The chemical name of A-928605 is 3-(2-(2-chlorobenzyl)-1 H-benzo [d]imidazol-5-yl)-1-((1 r, 4 r)-4-morpholinocyclohexyl)-1 H-pyrazolo [3,4-d]pyrimidin-4-amine. B, Kinome profile analysis of A-928605 on 156 unique kinases. Heat map colors correspond to the relative Ki against each kinase, where Ki greater than 1,000 nM are colored green, near 100 nM are yellow and Ki of roughly 10 nM are shaded red.

SK-N-FI cells = assay: SK-N-FI proliferation in vitro; assay type: cell-based, human; conditions: SK-N-FI cell line
Protocol: as §1

NIH-3T3 CD8-IGF1R cells [3] = assay: DNA microarray analysis, CD8-IGF1R cells; assay type: cell-based; conditions: 1 μM, 24 hours
Protocol: Cells were treated with 1 μM of compound or DMSO control ([…] final concentration) and grown under normal conditions for 24 hours. Cells were then directly lysed in QIAzol RNA lysis reagent (Qiagen, Valencia, CA). Samples were homogenized using an Ultra Turrax T 25 homogenizer (IKA, Wilmington, SC) and then processed with the RNeasy 96 Universal Tissue 8000 kit (Qiagen, Valencia, CA) using a BioRobot 3000 liquid handler (Qiagen, Valencia, CA) and a Sigma 4K15C centrifuge (Sigma, Osterode am Harz, Germany) according to the Qiagen-prescribed protocol. […] GeneChip Operating Software (v1.4.036) was used to quantify perfect match and mismatch features on the scanned microarray images. After quantification, quality control was assured using the Affymetrix Power Tools Quality Reporter (v1.0.04) quality control metrics.
Data normalization and analysis were performed using Resolver 7.0 software (Rosetta Inpharmatics, Seattle, WA). Ratios were built for the average of each treatment versus the group average and a p-value was calculated for every-fold change using the Resolver Affymetrix error model. […]

IGF1R and IR = assay: IGF1R versus IR in vitro enzyme activity and cellular phosphorylation; conditions: in vitro enzyme activity and cellular phosphorylation (data not shown)
NIH-3T3 CD8-IGF1R cells [4] = assay: Three day proliferation assay (MTS), NIH-3T3 CD8-IGF1R cells; assay type: cell-based
Protocol: as §1, §2

[5] = target: T1, epidermal growth factor receptor (EGFR) (Homo sapiens, UniProt P00533); assay: Cellular EGFR phosphorylation in A-431 and HCC827 cells; assay type: cell-based; conditions: A-431 cells; read-out: IC50 for inhibition of cellular EGFR phosphorylation
T1 construct: endogenous in cells; host or cells: A-431 and HCC827 cells
T1 sequence (P00533 25-1210): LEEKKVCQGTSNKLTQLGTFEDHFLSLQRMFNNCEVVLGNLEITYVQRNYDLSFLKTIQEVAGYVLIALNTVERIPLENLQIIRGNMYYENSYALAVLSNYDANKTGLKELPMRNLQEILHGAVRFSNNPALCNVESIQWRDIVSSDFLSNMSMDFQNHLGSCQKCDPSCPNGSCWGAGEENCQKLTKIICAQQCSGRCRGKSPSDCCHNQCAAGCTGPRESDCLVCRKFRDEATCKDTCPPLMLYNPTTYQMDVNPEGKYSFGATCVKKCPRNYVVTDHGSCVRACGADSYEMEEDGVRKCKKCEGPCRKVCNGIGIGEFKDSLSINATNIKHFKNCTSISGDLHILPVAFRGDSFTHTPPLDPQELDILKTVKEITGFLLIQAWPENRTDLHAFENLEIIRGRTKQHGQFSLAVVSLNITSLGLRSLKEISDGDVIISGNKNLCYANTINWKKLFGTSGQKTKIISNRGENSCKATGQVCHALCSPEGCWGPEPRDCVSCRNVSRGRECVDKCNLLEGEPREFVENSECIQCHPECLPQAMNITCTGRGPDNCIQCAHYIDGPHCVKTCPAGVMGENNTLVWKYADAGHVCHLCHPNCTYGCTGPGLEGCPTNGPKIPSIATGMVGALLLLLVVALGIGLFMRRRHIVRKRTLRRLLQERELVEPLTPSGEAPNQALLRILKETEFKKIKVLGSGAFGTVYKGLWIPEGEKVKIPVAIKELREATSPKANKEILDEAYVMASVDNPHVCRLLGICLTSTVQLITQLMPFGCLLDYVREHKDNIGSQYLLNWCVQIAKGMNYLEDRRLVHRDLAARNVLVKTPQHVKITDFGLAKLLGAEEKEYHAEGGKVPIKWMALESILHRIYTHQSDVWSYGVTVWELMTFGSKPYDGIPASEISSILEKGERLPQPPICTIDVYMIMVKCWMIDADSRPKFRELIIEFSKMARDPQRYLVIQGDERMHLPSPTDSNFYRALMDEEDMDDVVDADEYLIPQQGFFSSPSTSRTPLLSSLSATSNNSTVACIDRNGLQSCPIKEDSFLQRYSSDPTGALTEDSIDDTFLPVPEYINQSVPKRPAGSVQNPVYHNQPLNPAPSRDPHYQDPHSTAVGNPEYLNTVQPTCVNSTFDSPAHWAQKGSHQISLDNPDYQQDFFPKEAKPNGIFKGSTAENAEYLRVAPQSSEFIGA

[6] = target: T2, epidermal growth factor receptor (EGFR) (Homo sapiens, UniProt P00533, DEL746-750); assay: as above; assay type: cell-based; conditions: HCC827 cells; read-out: IC50 for inhibition of cellular EGFR phosphorylation
T2 construct: endogenous in cells; host or cells: A-431 and HCC827 cells
T2 sequence (P00533 with tags, fused parts or gaps DEL746-750): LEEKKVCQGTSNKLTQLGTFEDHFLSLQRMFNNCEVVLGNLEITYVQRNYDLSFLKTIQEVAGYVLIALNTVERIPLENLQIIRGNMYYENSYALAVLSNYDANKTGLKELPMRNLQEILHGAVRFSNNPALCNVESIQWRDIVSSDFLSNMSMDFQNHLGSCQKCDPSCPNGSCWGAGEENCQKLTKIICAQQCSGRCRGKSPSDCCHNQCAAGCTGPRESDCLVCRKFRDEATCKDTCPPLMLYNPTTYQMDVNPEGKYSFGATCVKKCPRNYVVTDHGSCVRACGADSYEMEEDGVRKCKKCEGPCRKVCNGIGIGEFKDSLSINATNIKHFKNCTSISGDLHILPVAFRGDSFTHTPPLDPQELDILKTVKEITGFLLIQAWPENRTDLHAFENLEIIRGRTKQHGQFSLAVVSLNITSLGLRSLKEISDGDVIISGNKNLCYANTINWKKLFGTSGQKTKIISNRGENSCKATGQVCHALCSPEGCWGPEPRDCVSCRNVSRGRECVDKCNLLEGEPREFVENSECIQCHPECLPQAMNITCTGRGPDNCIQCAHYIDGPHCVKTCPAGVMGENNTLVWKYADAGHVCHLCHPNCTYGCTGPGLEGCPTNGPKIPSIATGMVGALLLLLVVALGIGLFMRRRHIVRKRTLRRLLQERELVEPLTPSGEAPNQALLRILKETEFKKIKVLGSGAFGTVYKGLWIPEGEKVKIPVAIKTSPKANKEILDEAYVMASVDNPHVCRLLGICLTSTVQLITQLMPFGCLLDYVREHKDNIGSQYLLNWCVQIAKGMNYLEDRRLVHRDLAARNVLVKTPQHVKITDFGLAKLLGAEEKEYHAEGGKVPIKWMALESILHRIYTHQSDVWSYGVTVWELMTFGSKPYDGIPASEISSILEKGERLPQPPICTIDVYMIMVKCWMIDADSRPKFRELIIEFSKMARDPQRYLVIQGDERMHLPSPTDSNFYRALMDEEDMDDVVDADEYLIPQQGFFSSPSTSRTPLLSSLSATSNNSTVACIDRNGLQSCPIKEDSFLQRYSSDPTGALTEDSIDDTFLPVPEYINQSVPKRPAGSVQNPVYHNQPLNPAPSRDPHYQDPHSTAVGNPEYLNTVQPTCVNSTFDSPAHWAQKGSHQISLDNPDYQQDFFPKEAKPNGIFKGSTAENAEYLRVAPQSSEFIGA

MiaPaCa-2 flank tumors = assay: MiaPaCa-2 pancreatic xenograft flank model; assay type: in vivo, mice; conditions: A-928605 37.5 mg/kg i.p. b.i.d. 20 days; cetuximab 30 mg/kg i.p. 3×/week, 6 doses
Protocol: All animal studies were conducted in accordance with the guidelines established by the internal Institutional Animal Care and Use Committees. For CD8 IGF1R flank tumors, 5.0 × 10^5 cells/mouse were mixed with an equal volume of Matrigel (BD Biosciences) and injected subcutaneously into the flank of 6- to 8-week-old female nu/nu mice (22 g; Charles River Laboratories). The tumors were allowed to grow approximately 225 mm^3, and mice were reassigned into treatment groups (N = 10) based on tumor volume. At the initiation of treatment, the mean tumor volume ± SEM of the groups was approximately 231 ± 10 mm^3. For MiaPaCa-2 flank tumors, 1.0 × 10^6 cells/mouse were mixed with an equal volume of Matrigel and injected subcutaneously into the flank of 6- to 8-week-old female SCID mice (20 g; Charles River Laboratories). The tumors were allowed to grow approximately 225 mm^3, and mice were reassigned into treatment groups (N = 10) based on tumor volume. […] In all flank models, tumor growth was periodically analyzed by measurement with digital calipers and tumor volume was estimated from the formula (L × W ^2)/2. For all flank models, the effect of treatment on tumor growth rate was assessed by determining %T/C [(mean tumor volume of treated group on day X ÷ mean tumor volume of control group on day X) × 100]. […]

[7] = tested on: SK-N-FI renal subcapsule tumors; assay: SK-N-FI neuroblastoma renal subcapsule xenograft model; assay type: in vivo, mice; conditions: 37.5 mg/kg i.p. b.i.d. for 14 days, end of dosing (day 28)
Protocol: For SK-N-FI renal subcapsule tumors, mice were anesthetized with intramuscular injections of ketamine (40 mg/kg) and rompum (5 mg/kg) before surgery. […] The peritoneal cavity was closed with 4-0 suture and skin incision was closed with clip. Fourteen days after tumor cell injection, tumor growth was assessed in cohort mice by necropsy (see Figure 1B) and study mice were reassigned at that time to treatment groups (N = 10) based on injection order. At the end of the dosing period, tumor weight was determined by comparing the weight of the tumor bearing kidney to that of the contralateral kidney.
Figure 5 Efficacy of A-928605 in the SK-N-FI neuroblastoma xenograft as a renal subcapsule model. A, A-928605 inhibits proliferation of SK-N-FI cells in vitro. […] B, Representative photograph taken of the tumor bearing and contralateral kidneys prior to the initiation of dosing on day 14 post tumor cell injection, indicating a tumor weight of 0.07 g. C, Representative photograph taken of the tumor bearing and contralateral kidneys at the end of the dosing schedule (day 28).

CD8-IGF1R = target: T3, CD8-IGF1R (Homo sapiens, UniProt P01732+P08069); assay: Western blot of IGF1R pathway phosphorylation and Cyclin D1 in NIH-3T3 CD8-IGF1R cells; assay type: cell-based, mouse; parameters: phosphorylation of the IGF1R cytotail, AKT and ERK1/2 / Cyclin D1 expression: dose or concentration left out as unconfirmed
T3 construct: cytoplasmic domain of human IGF1R (amino acids 959-1368); expressed in transfected cells
T3 sequence (P01732+P08069 fused): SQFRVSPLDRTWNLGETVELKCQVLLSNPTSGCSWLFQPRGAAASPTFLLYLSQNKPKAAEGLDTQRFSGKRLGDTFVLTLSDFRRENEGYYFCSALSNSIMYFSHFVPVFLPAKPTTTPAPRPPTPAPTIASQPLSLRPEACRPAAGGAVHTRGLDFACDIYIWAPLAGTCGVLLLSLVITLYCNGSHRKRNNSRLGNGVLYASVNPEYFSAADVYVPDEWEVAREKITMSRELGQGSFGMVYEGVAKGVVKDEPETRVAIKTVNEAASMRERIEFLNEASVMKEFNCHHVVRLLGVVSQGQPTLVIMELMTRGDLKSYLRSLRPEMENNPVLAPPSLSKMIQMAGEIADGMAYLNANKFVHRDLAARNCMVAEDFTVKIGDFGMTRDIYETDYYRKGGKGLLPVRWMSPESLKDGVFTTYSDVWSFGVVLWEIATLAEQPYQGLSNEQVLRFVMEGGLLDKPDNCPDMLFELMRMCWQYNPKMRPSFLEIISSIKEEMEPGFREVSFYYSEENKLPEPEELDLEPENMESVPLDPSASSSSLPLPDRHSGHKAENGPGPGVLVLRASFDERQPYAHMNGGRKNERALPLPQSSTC
Protocol: NIH-3T3, SK-N-FI, MiaPaCa-2 and HCC827 cell lines were obtained from the American Type Culture Collection (ATCC, Manassas, VA). Cell lines were cultured and expanded in media according to ATCC guidelines. CD8-IGF1R was generated by an in-frame fusion of the extracellular and transmembrane domains of the human CD8α coding sequence (amino acids 1-207) followed by a BamHI restriction site to the cytoplasmic domain of human IGF1R (amino acids 959-1368). This product was cloned into the pIRESpuro3 vector (Clontech, Mountain View, CA) via AflII/NotI adaptors. NIH-3T3 CD8-IGF1R and vector control lines were generated by transfection of these constructs with FuGENE 6 (Roche Diagnostics, Basel, Switzerland) followed by selection with 2 μg/ml puromycin. Cells were dilution cloned and surviving colonies were screened for expression of the transgene. Cell clones positive for CD8-IGF1R expression and vector alone transfectants were pooled and remained under puromycin selection for the duration of the study.
Antibodies used included rabbit anti-ERK1/2 pTpY185/187 (Biosource, Camarillo, CA), rabbit anti-IGF-1Rβ and rabbit anti-Cyclin D1 (Santa Cruz Biotechnology, Inc., Santa Cruz, CA), rabbit anti-phospho-IGF-1Rβ (Tyr1135/1136)/IR (Tyr1150/1151), rabbit antiphospho-AKT (S473), rabbit anti-AKT, rabbit anti-ERK1/2, (Cell Signaling Technology, Inc., Beverly, MA) and mouse anti-ACTIN (Sigma, St. Louis, MO). All cell lysate samples were lysed directly in 2× LDS NuPAGE sample buffer with reducing reagent (Invitrogen, Carlsbad, CA) and were analyzed for levels of phosphorylated and total signaling proteins by Western blotting using the NuPAGE electrophoresis and transfer systems (Invitrogen, Carlsbad, CA) and near infrared detection.
All cells were grown in normal growth media containing 10% FBS. B, Cells were treated for 1 hour with A-928605 in a dose response analysis as shown. The CD8-IGF1R fusion protein runs as a doublet. […]

HCC-827 flank tumors = assay: HCC-827 NSCLC xenograft flank model
Protocol: All animal studies were conducted in accordance with the guidelines established by the internal Institutional Animal Care and Use Committees. For CD8 IGF1R flank tumors, 5.0 × 10^5 cells/mouse were mixed with an equal volume of Matrigel (BD Biosciences) and injected subcutaneously into the flank of 6- to 8-week-old female nu/nu mice (22 g; Charles River Laboratories). The tumors were allowed to grow approximately 225 mm^3, and mice were reassigned into treatment groups (N = 10) based on tumor volume. At the initiation of treatment, the mean tumor volume ± SEM of the groups was approximately 231 ± 10 mm^3. For MiaPaCa-2 flank tumors, 1.0 × 10^6 cells/mouse were mixed with an equal volume of Matrigel and injected subcutaneously into the flank of 6- to 8-week-old female SCID mice (20 g; Charles River Laboratories). The tumors were allowed to grow approximately 225 mm^3, and mice were reassigned into treatment groups (N = 10) based on tumor volume. At the initiation of treatment, the mean tumor volume ± SEM of the groups was approximately 210 ± 30 mm^3. […] The tumors were allowed to grow approximately 225 mm^3, and mice were reassigned into treatment groups (N = 10) based on tumor volume. At the initiation of treatment, the mean tumor volume ± SEM of the groups was approximately 300 ± 20 mm^3. In all flank models, tumor growth was periodically analyzed by measurement with digital calipers and tumor volume was estimated from the formula (L × W ^2)/2. For all flank models, the effect of treatment on tumor growth rate was assessed by determining %T/C [(mean tumor volume of treated group on day X ÷ mean tumor volume of control group on day X) × 100].
Erlotinib was dosed orally at 3.1 mg/kg, b.i.d. for 16 days.

IR = IR (Homo sapiens, UniProt P06213); assay: In vitro kinase panel (kinome profile), IR; assay type: biochemical
Chain of IR (P06213 28-1382): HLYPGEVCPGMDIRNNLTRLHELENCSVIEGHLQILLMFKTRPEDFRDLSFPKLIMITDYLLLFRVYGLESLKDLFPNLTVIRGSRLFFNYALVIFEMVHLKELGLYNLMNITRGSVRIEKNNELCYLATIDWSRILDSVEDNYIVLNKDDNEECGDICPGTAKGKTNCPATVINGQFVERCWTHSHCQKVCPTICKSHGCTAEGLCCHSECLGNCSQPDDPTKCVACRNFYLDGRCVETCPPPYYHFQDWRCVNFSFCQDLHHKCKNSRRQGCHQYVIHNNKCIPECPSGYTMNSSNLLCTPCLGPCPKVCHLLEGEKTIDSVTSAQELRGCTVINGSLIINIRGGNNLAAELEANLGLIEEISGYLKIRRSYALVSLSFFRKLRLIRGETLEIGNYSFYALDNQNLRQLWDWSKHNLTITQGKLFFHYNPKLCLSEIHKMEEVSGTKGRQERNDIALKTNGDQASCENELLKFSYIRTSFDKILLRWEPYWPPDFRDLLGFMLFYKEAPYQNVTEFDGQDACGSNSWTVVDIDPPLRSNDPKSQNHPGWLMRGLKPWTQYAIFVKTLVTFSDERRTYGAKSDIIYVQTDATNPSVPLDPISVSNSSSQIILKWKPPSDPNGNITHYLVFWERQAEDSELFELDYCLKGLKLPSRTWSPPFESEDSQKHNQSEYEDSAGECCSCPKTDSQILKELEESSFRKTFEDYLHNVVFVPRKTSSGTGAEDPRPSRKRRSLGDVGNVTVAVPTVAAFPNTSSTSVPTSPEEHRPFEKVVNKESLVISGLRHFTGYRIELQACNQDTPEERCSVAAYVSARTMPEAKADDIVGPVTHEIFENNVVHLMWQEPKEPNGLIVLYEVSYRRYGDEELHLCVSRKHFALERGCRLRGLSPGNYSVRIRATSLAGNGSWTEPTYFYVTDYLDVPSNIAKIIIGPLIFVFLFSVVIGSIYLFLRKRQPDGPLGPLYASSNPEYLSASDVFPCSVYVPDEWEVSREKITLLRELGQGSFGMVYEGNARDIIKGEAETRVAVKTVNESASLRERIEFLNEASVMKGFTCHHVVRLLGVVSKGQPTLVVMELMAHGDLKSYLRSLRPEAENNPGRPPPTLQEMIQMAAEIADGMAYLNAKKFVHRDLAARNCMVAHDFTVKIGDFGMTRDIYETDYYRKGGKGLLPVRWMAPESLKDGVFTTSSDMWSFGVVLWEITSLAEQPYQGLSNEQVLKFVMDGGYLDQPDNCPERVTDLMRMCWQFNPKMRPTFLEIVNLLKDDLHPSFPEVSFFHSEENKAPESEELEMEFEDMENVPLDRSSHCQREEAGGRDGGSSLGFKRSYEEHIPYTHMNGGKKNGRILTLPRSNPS
Protocol: as §3

NIH-3T3 CD8-IGF1R cells [8] = assay: Morphology of CD8-IGF1R cells (phase contrast imaging); assay type: cell-based; conditions: increasing concentrations, imaging two days after addition
Protocol: Supplementary file 1471-2407-9-314-S1.jpeg: Additional File 1 Supplementary Figure S1. Transformed morphology of the CD8-IGF1R cells. A, Phase contrast images of the NIH-3T3 vector control cells versus the NIH-3T3 CD8-IGF1R cells. B, Morphological dose response of the CD8-IGF1R line to A-928605 treatment. Cells were plated and allowed to adhere and proliferate overnight. The next day compound was added and imaging was performed two days later. The cellular morphology appears to revert back towards a naive 3T3 fibroblast at concentrations near or […] the IC50 of A-928605. All images were captured with a 20× objective. Click here for file

Nc1ncnc2c1c(-c1ccc3[nH]c(Cc4ccccc4Cl)nc3c1)nn2[C@H]1CC[C@H](N2CCOCC2)CC1 [A-928605, 3-(2-(2-chlorobenzyl)-1 H-benzo [d]imidazol-5-yl)-1-((1 r, 4 r)-4-morpholinocyclohexyl)-1 H-pyrazolo [3,4-d]pyrimidin-4-amine]
inhibition of anchorage-independent growth in soft agar (NIH-3T3 CD8-IGF1R cells [1]): completely inhibiting; also recorded: inhibits growth
effect on cellular proliferation [2]: little effect
%T/C (tumor volume, treated vs. vehicle) (CD8 IGF1R flank tumors): 21%
Ki (IGF1R): < 10 nM
inhibition of proliferation in vitro (SK-N-FI cells): effectively inhibit proliferation
decrease in Ccn d1 transcripts (NIH-3T3 CD8-IGF1R cells [3]): 4.8 fold
up-regulation of Cdkn1a (p21) (NIH-3T3 CD8-IGF1R cells [3]): 1.5 fold
IC50s against IGF1R versus IR (IGF1R and IR): roughly equipotent
IC50 (NIH-3T3 CD8-IGF1R cells [4]; Mus musculus, NIH3T3, CD8-IGF1R cells, 72 hours, read-out: IC50, inhibition of cellular proliferation): < 300 nM
IC50 [5]: > 10000 nM
IC50 [6]: > 10000 nM
%T/C, monotherapy compared to appropriate controls (MiaPaCa-2 flank tumors): approximately 80%
%T/C (tumor weight, treated vs. vehicle) [7]: 58%
Cyclin D1 expression (CD8-IGF1R; 24-hours of treatment): significant decrease
IC50 (CD8-IGF1R; CD8-IGF1R cell line, 1 hour treatment, inhibition near known cellular IC50, read-out: cellular phosphorylation IC50 (dose-dependent inhibition of IGF1R phosphorylation)): ~100 nM
phosphorylation of the IGF1R cytotail, AKT and ERK1/2 (CD8-IGF1R; one hour of treatment, CD8-IGF1R cells): inhibition of phosphorylation
tumor response in words (HCC-827 flank tumors; size-matched HCC827 xenografts, 16 days dosing): not consistently statistically different from its vehicle control; also recorded: partial responses
Ki (IR): < 10 nM
transformed phenotype (morphology) (NIH-3T3 CD8-IGF1R cells [8]): reversal of their transformed phenotype

Cc1nc(Nc2ncc(C(=O)Nc3c(C)cccc3Cl)s2)cc(N2CCN(CCO)CC2)n1 [Dasatinib, reference compound]
effect on cellular proliferation [2]: potent inhibitor
effect on cellular proliferation (NIH-3T3 CD8-IGF1R cells [4]; CD8-IGF1R line, concentrations up to 10 μM): no effect

C#Cc1cccc(Nc2ncnc3cc(OCCOC)c(OCCOC)cc23)c1 [erlotinib, reference compound]
tumor response in words (HCC-827 flank tumors; mouse, in vivo): partial responses
